Read-outs that look alike come from different tables or passages of the source. Bounds are passed on as bounds.

Among the data in patent US10093631B2, “Bifunctional compounds and use for reducing uric acid levels” (Acquist LLC, priority 2014, dated 2018) are IC50 values, retold here.

In test [1] the target is URAT1 (SLC22A12) (Homo sapiens (Human), UniProt Q96S37). The test can be described thus: URAT1 (SLC22A12) cellular uptake assay, 3H-orotate transport in stably transfected URAT-1/CHO cells. It is filed as cell-based.
Test [2] deals with xanthine oxidase (Homo sapiens (Human), UniProt P47989). The test can be described thus: Fluorescence-based xanthine oxidase inhibition assay. It is filed as biochemical.
The mark [3] stands for this setting: URAT-1/CHO cells, 3H-orotate uptake, 7 concentrations 0.01 to 150 μM, read-out: URAT1 IC50.
Where [4] appears, read: triplicate, 10 concentrations, read-out: Xanthine Oxidase IC50.

Chain of URAT1 (SLC22A12) (Q96S37 whole entry): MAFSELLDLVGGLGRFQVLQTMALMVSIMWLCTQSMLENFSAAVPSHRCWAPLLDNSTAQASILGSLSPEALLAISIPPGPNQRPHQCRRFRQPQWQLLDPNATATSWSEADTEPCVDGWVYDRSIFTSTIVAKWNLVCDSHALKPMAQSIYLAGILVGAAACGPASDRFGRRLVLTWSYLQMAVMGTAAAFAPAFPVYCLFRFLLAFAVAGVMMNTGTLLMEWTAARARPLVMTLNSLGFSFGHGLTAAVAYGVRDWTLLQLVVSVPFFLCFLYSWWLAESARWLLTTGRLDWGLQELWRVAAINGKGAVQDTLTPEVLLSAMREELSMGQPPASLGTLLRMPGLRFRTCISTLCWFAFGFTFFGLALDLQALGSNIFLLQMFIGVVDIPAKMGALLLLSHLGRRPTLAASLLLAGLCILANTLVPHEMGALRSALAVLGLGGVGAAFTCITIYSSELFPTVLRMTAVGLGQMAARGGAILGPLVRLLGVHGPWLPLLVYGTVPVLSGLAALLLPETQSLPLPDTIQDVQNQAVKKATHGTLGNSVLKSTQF
Chain of xanthine oxidase (P47989 whole entry, species assumed): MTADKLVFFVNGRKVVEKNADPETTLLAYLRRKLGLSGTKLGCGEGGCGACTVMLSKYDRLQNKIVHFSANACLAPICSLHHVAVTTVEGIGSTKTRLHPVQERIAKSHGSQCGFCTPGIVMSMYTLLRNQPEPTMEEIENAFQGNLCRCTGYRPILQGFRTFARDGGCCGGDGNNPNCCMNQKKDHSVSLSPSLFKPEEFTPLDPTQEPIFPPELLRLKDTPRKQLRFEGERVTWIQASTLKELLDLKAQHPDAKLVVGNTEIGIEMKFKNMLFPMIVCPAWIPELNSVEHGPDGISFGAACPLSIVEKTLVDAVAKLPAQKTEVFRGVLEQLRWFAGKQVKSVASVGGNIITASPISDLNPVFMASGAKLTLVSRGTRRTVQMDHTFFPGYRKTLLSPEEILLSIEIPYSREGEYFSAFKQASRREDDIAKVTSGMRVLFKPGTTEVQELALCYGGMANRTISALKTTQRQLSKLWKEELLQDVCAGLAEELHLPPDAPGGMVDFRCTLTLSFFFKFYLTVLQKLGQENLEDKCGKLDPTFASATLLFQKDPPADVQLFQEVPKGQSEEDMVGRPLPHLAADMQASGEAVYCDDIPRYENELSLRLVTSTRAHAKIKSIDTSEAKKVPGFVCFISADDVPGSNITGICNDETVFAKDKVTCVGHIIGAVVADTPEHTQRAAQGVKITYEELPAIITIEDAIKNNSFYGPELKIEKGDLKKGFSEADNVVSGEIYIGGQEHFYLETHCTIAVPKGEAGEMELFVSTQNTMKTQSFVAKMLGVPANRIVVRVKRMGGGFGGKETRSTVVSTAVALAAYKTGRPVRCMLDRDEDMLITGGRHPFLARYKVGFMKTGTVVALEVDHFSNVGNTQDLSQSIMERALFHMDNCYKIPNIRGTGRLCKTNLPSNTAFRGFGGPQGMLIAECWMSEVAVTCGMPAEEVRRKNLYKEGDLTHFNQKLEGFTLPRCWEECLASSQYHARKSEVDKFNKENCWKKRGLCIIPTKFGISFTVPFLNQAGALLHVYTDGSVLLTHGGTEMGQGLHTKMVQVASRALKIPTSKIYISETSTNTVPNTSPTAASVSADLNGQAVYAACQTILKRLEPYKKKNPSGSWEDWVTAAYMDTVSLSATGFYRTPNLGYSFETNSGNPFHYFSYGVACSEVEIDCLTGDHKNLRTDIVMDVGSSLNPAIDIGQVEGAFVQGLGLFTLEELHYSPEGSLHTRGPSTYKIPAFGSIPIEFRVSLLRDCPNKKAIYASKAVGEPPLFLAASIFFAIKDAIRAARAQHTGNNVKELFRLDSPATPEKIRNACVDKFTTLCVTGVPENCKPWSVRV

Usually IC50 stands for the concentration needed to halve the response being measured. Consider `O=C(Nc1ccc(F)cc1)c1c(O)[nH]c(=S)[nH]c1=O` [Formula (Ib), N-(4′-fluorophenyl)-1,2,3,4-tetrahydro-6-hydroxy-4-oxo-2-thioxo-5-pyrimidinecarboxamide], for which the IC50 in test [1] and in test [2] was under 10 µM each time.

In the case of `O=C(Nc1ccc(O)cc1F)c1c(O)[nH]c(=S)[nH]c1=O` [Formula (Ic), N-(2′-fluoro-4′-hydroxyphenyl)-1,2,3,4-tetrahydro-6-hydroxy-4-oxo-2-thioxo-5-pyrimidinecarboxamide], the IC50 in test [1] is under 10 µM; in test [1] (setting [3]), 5.83 µM; in test [2], under 10 µM; in test [2] (setting [4]), 5.6 µM.

As for `O=C(Nc1cc(F)c(O)c(F)c1)c1c(O)[nH]c(=O)[nH]c1=O` [Formula (Ig), N-(3,5-difluoro-4-hydroxyphenyl)-6-hydroxy-2,4-dioxo-1,2,3,4-tetrahydropyrimidine-5-carboxamide], the IC50 in test [1] is under 10 µM; in test [1] (setting [3]), 3.55 µM; in test [2], under 10 µM; in test [2] (setting [4]), 1.92 µM.

For `O=C(Nc1ccc(O)cc1F)c1c(O)[nH]c(=O)[nH]c1=O` [Formula (Ih), N-(2-fluoro-4-hydroxyphenyl)-6-hydroxy-2,4-dioxo-1,2,3,4-tetrahydropyrimidine-5-carboxamide], the values for the IC50 in test [1] (setting [3]) and in test [2] (setting [4]) were 1.79 µM and 5.97 µM, respectively.

With `O=C(Nc1ccncc1)c1c(O)[nH]c(=O)[nH]c1=O` [Formula (Ik), 6-hydroxy-2,4-dioxo-N-(pyridin-4-yl)-1,2,3,4-tetrahydropyrimidine-5-carboxamide], the figures for the IC50 in test [1] (setting [3]) and in test [2] (setting [4]) were 5.3 µM and 14.3 µM, respectively.
